Laboratory results published in the Kinase Knowledgebase extract (Sharma et al. 2016).

Tests used:
[1] = target: MAPK14 (human) (UniProt Q16539); assay: In vitro Inhibition of TNF-alpha Production in PBMC Cells
[2] = tested on: MAPK14 (BALB/cJ mice); assay: In vivo Inhibition of LPS-induced TNF-alpha Production; settings: dose or concentration not given here

Chain of MAPK14 (human) (Q16539 whole entry, looked up): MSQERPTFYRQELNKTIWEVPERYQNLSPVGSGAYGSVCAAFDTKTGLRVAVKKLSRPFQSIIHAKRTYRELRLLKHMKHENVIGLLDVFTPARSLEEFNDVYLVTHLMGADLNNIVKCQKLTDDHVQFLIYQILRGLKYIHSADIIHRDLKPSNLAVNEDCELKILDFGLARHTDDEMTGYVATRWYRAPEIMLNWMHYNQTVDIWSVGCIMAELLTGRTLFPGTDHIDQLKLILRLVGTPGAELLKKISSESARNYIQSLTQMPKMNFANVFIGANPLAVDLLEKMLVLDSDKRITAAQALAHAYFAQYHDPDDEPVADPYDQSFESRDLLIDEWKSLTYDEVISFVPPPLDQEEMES

SMILES | IC50 [1] | inhibition [2]
CCCc1c(-c2ccnc(N[C@@H](C)COC)n2)c(-c2ccc(F)cc2)cn1C(=O)OC(C)(C)C | 50 nM | 
Cn1c(Br)c(-c2ccncc2)c(-c2ccc(F)cc2)c1C(=O)OC(C)(C)C | 1890 nM | -7%
COC(=O)c1c(-c2ccc(F)cc2)c(-c2ccncc2)c(NCCN2CCOCC2)n1C | 50 nM | 44%
CCCN1CCN(c2c(-c3ccncc3)c(-c3ccc(F)cc3)c(C(=O)OC)n2C)CC1 | 901 nM | 
CCn1cc(-c2ccncc2)c(-c2ccc(F)cc2)c1CO | 70 nM | 48%
CCOC(=O)c1c(-c2ccc(F)cc2)c(-c2ccncc2)cn1C | 125 nM | 
O=C1c2c(-c3ccncc3)c(-c3ccc(F)cc3)cn2C(=O)N1Cc1ccccc1 | 26 nM | 51%
COC(=O)c1c(-c2ccc(F)cc2)c(-c2ccncc2)c(NC2CCNCC2)n1C | 315 nM | 7%
COC(=O)c1c(-c2ccc(F)cc2)c(-c2ccncc2)c(NCCN2CCNCC2)n1C |  | 77%
CCOC(=O)c1[nH]cc(-c2ccncc2)c1-c1cc(F)cc(F)c1 | 114 nM | -14%
CNC(=O)c1c(-c2ccc(F)cc2)c(-c2ccncc2)c(Br)n1C | 543 nM | 53%
COC(=O)c1c(-c2ccc(F)cc2)c(-c2ccncc2)c(NCCCN2CCOCC2)n1C |  | 64%
CCN1CCCC1CNc1c(-c2ccncc2)c(-c2ccc(F)cc2)c(C(=O)OC)n1C (stereo unspecified) | 7750 nM | 
COC(=O)CCn1c(C#CCCO)c(-c2ccncc2)c(-c2ccc(F)cc2)c1C(=O)OC | 5280 nM | 
COC(=O)c1c(-c2ccc(F)cc2)c(-c2ccncc2)c(NC(C)=O)n1C | 1490 nM | 
CCCc1c(-c2ccnc(N[C@@H](C)c3ccccc3)n2)c(-c2ccc(F)cc2)cn1C(=O)OC(C)(C)C |  | -79%
CC(=O)N1CCN(c2c(-c3ccncc3)c(-c3ccc(F)cc3)c(-c3nnco3)n2C)CC1 |  | 19%
COC(=O)c1c(-c2ccc(F)cc2)c(-c2ccncc2)c(NCCNC(C)=O)n1C | 1690 nM | 
COC(=O)c1c(-c2ccc(F)cc2)c(-c2ccncc2)c(Nc2cccc(NC(C)=O)c2)n1C | 21 nM | 
Cn1cc(-c2ccncc2)c(-c2ccc(F)cc2)c1C(=O)NCC(=O)c1ccccc1 | 157 nM | 
CCOC(=O)c1c(-c2ccc(F)cc2)c(-c2ccncc2)c(CCCO)n1C | 186 nM | 
N#Cc1[nH]cc(-c2ccncc2)c1-c1ccc(F)cc1 | 47 nM | 
COC(=O)c1c(-c2cccc(F)c2)c(-c2ccncc2)cn1C | 64 nM | 
CN(C)C(=O)c1c(-c2ccc(F)cc2)c(-c2ccncc2)c(N2CCNCC2)n1C | 120 nM | 

SMILES | IC50 [1] | inhibition [2]
Fc1ccc(-c2c[nH]c(CNCc3ccccc3)c2-c2ccncc2)cc1 | 6 nM | 
CC(O)c1c(-c2ccc(F)cc2)c(-c2ccncc2)cn1C (stereo unspecified) | 1450 nM | 
COC(=O)c1c(-c2ccc(F)cc2)c(-c2ccncc2)cn1CCN(C)C |  | -32%
COC(=O)c1c(-c2ccc(F)cc2)c(-c2ccncc2)c(NCCN2CCSCC2)n1C | 69 nM | 
COC(=O)c1c(-c2ccc(F)cc2)c(-c2ccncc2)c(NC2CCN(Cc3ccccc3)CC2)n1C | 1310 nM | 
CCOC(=O)c1[nH]cc(-c2ccc(F)cc2)c1-c1ccncc1 | 145 nM | 
COC(=O)C1CCn2c(I)c(-c3ccncc3)c(-c3ccc(F)cc3)c2C1=O (stereo unspecified) |  | 15%
COC(=O)c1c(-c2ccc(F)cc2)c(-c2ccncc2)c(N2CCN(C(=O)OC(C)(C)C)CC2)n1C | 4260 nM | 
CCOC(=O)c1c(-c2ccc(Br)cc2)c(-c2ccncc2)cn1C | 211 nM | 
COC(=O)c1c(-c2ccc(F)cc2)c(-c2ccncc2)c(N(C)CCN2CCOCC2)n1C | 38 nM | 
COC(=O)c1c(-c2ccc(F)cc2)c(-c2ccncc2)c(N2CCC(NC(=O)OC(C)(C)C)C2)n1C (stereo unspecified) | 1660 nM | 
CON(C)C(=O)c1c(-c2ccc(F)cc2)c(-c2ccncc2)cn1C | 5840 nM | 
CC(=O)c1c(-c2ccc(F)cc2)c(-c2ccncc2)cn1C | 597 nM | 
COC(=O)c1c(-c2ccc(F)cc2)c(-c2ccncc2)cn1CCO | 692 nM | 
CCn1c(C(=O)OC)c(-c2ccc(F)cc2)c(-c2ccncc2)c1N(C)CCN1CCOCC1 | 105 nM | 
Cn1c(CO)c(-c2ccc(F)cc2)c(-c2ccncc2)c1N1CCN(C(=O)OC(C)(C)C)CC1 |  | 83%
COC(=O)c1c(-c2ccc(F)cc2)c(-c2ccncc2)c(-c2ccncc2)n1C |  | 51%
C[C@H](Nc1nccc(-c2c[nH]cc2-c2ccc(F)cc2)n1)c1ccccc1 | 3 nM | 
Cn1cc(-c2ccncc2)c(-c2ccc(F)cc2)c1C#N | 171 nM | 
COC(=O)c1c(-c2ccc(F)cc2)c(-c2ccncc2)cn1CCN1CCOCC1 | 10000 nM | 
COC(=O)c1c(-c2ccc(F)cc2)c(-c2ccncc2)c(N(C)CCN2CCSCC2)n1C | 183 nM | 
O=C1OCCn2cc(-c3ccncc3)c(-c3ccc(F)cc3)c21 | 160 nM | 
COC(=O)c1c(-c2ccc(F)cc2)c(-c2ccncc2)c(Nc2ccc3c(c2)N(C(C)=O)CC3)n1C | 650 nM | 

Further compounds by falling IC50 [1], results first:

IC50 [1] | SMILES | inhibition [2]
3510 nM | COC(=O)c1c(-c2ccncc2)c(-c2ccc(F)cc2)c(N(C)CCN2CCOCC2)n1C | 
1980 nM | COC(=O)c1c(-c2ccc(F)cc2)c(-c2ccncc2)c(N2CCN(C(C)C)CC2)n1C | 
1640 nM | COC(=O)c1c(-c2ccc(F)cc2)c(-c2ccncc2)c(NCCNC(=O)OC(C)(C)C)n1C | 
1480 nM | CNC(=O)c1c(-c2ccc(F)cc2)c(-c2ccncc2)cn1C | 
1390 nM | COC(=O)c1c(-c2ccc(F)cc2)c(-c2ccncc2)c(NCCN2CCCC2)n1C | 
1380 nM | CN(C)C(=O)c1c(-c2ccc(F)cc2)c(-c2ccncc2)cn1C | 33%
1080 nM | CCCCNCc1c(-c2ccncc2)c(-c2ccc(F)cc2)cn1C | 
1030 nM | Cn1cc(-c2ccncc2)c(-c2ccc(F)cc2)c1-c1ncc(-c2ccccc2)o1 | 
660 nM | Cn1c(C(=O)c2ccccc2)c(-c2ccc(F)cc2)c(-c2ccncc2)c1N1CCNCC1 | 
589 nM | CCCn1c(NCCN2CCOCC2)c(-c2ccncc2)c(-c2ccc(F)cc2)c1C(=O)OC | 
573 nM | COC(=O)c1c(-c2ccc(F)cc2)c(-c2ccncc2)c(N2CCN(CC3CCCCC3)CC2)n1C | 
351 nM | Cn1c(C#N)c(-c2ccc(F)cc2)c(-c2ccncc2)c1NCCN1CCOCC1 | 
301 nM | CN(C)C(=O)c1c(-c2ccc(F)cc2)c(-c2ccncc2)c(Br)n1C | -41%
208 nM | COC(=O)c1c(-c2ccc(F)cc2)c(-c2ccncc2)c2n1CCC2C (stereo unspecified) | 
150 nM | O=C1CCCn2cc(-c3ccncc3)c(-c3ccc(F)cc3)c21 | 
148 nM | OCCNCc1[nH]cc(-c2ccc(F)cc2)c1-c1ccncc1 | 
145 nM | COC(=O)c1c(-c2ccc(F)cc2)c(-c2ccncc2)c(NCCc2ccncc2)n1C | 
138 nM | O=C1CCn2cc(-c3ccncc3)c(-c3ccc(F)cc3)c21 | 
117 nM | CN(CCN1CCOCC1)c1c(-c2ccncc2)c(-c2ccc(F)cc2)cn1C | 
86 nM | CCOC(=O)c1c(-c2ccc(F)cc2)c(-c2ccncc2)c(Br)n1C | 
42 nM | COC(=O)c1c(-c2ccc(F)cc2)c(-c2ccncc2)c(NCc2ccc(OC)cc2)n1C | 
30 nM | CCOC(=O)N1CCN(c2c(-c3ccncc3)c(-c3ccc(F)cc3)c(C(=O)OC)n2C)CC1 | 8%
29 nM | COC(=O)CCCn1c(NCCN2CCOCC2)c(-c2ccncc2)c(-c2ccc(F)cc2)c1C(=O)OC | 
18 nM | Cn1cc(-c2ccncc2)c(-c2ccc(F)cc2)c1-c1nnco1 | 
